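96-well plates; 48 h exposure; 5 concentrations. Endpoints by linear interpolation between flanking doses. Not reached: highest tested concentration assigned. GI50: concentration for 50% inhibition of growth.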 Active and inactive are the calls of the source. No stated cut-off is given here; in the data, active = GI50 up to about 1.1 µM and inactive = higher. Peptide text beside a SMILES is read from it. * marks the point of attachment. OSu = O=C1CCC(=O)N1O*
Legend:
Test in all cases: DTP human tumour cell line panel, 48 h
PC-3 = test system: PC-3
HCC 2998 = test system: HCC 2998
MDA-MB-435 = test system: MDA-MB-435
CCRF-CEM = test system: CCRF-CEM
NCI-H23 = test system: NCI-H23
COLO 205 = test system: COLO 205
HCT-116 = test system: HCT-116
SNB-19 = test system: SNB-19
NCI-H226 = test system: NCI-H226
IGROV-1 = test system: IGROV-1
T47D = test system: T47D
CAKI-1 = test system: CAKI-1
SK-MEL-5 = test system: SK-MEL-5
EKVX = test system: EKVX
MDA-MB-231 = test system: MDA-MB-231
RPMI-8226 = test system: RPMI-8226
RXF 393 = test system: RXF 393
SR = test system: SR
SF-268 = test system: SF-268
Malme-3M = test system: Malme-3M

| SMILES | GI50 (PC-3) | GI50 (HCC 2998) | GI50 (MDA-MB-435) | GI50 (CCRF-CEM) | GI50 (NCI-H23) | GI50 (COLO 205) | GI50 (HCT-116) | GI50 (SNB-19) | GI50 (NCI-H226) | GI50 (IGROV-1) | GI50 (T47D) | GI50 (CAKI-1) | GI50 (SK-MEL-5) | GI50 (EKVX) | GI50 (MDA-MB-231) | GI50 (RPMI-8226) | GI50 (RXF 393) | GI50 (SR) | GI50 (SF-268) | GI50 (Malme-3M) |
| --- | --- | --- | --- | --- | --- | --- | --- | --- | --- | --- | --- | --- | --- | --- | --- | --- | --- | --- | --- | --- |
| COc1cccc(CN(C(=O)/C=C\Sc2ccccc2)C(C)(C)C)c1 | 33 µM (inactive) | > 100 µM (inactive) | 86.5 µM (inactive) | 0.435 µM (active) | > 100 µM (inactive) | 63.7 µM (inactive) | 33 µM (inactive) | > 100 µM (inactive) | > 100 µM (inactive) | 57.1 µM (inactive) | 17.6 µM (inactive) | > 100 µM (inactive) | 49 µM (inactive) | 90.6 µM (inactive) | > 100 µM (inactive) | – | – | – | – | – |
| CCOC(=O)N1C(=S)C(C(=O)OC)(C(=O)OC)N=C1C | > 100 µM (inactive) | > 100 µM (inactive) | > 100 µM (inactive) | > 100 µM (inactive) | > 100 µM (inactive) | > 100 µM (inactive) | > 100 µM (inactive) | > 100 µM (inactive) | > 100 µM (inactive) | > 100 µM (inactive) | > 100 µM (inactive) | > 100 µM (inactive) | > 100 µM (inactive) | > 100 µM (inactive) | – | > 100 µM (inactive) | > 100 µM (inactive) | > 100 µM (inactive) | – | – |
| CCOC(=O)C(=O)Nc1ccc(C)c(C)c1 | – | > 100 µM (inactive) | – | > 100 µM (inactive) | > 100 µM (inactive) | 17.1 µM (inactive) | > 84.7 µM (inactive) | > 100 µM (inactive) | > 100 µM (inactive) | > 100 µM (inactive) | – | > 100 µM (inactive) | > 100 µM (inactive) | > 100 µM (inactive) | – | > 100 µM (inactive) | > 100 µM (inactive) | < 0.01 µM (active) | > 100 µM (inactive) | > 100 µM (inactive) |
| CCC1(c2ccncc2)CCC(=O)NC1=O (stereo not drawn) [ROGLETIMIDE] | – | > 100 µM (inactive) | – | > 100 µM (inactive) | > 100 µM (inactive) | > 100 µM (inactive) | > 100 µM (inactive) | > 100 µM (inactive) | > 100 µM (inactive) | > 100 µM (inactive) | – | > 100 µM (inactive) | > 100 µM (inactive) | > 100 µM (inactive) | – | > 100 µM (inactive) | > 100 µM (inactive) | > 100 µM (inactive) | > 100 µM (inactive) | > 100 µM (inactive) |
| CC1=C(C(=O)Nc2ccccc2C)C(c2ccc(C3C(C(=O)Nc4ccccc4C)=CNC=C3C(=O)Nc3ccccc3C)cc2)C(C(=O)Nc2ccccc2C)=C(C)N1 | – | 17.8 µM (inactive) | – | 3.15 µM (inactive) | 19.1 µM (inactive) | 21 µM (inactive) | 19.5 µM (inactive) | 19.8 µM (inactive) | 17 µM (inactive) | 18.6 µM (inactive) | – | 21.3 µM (inactive) | 12.9 µM (inactive) | 17.9 µM (inactive) | – | 15.8 µM (inactive) | 47.2 µM (inactive) | 3.22 µM (inactive) | 11.4 µM (inactive) | 19.1 µM (inactive) |
| O=c1oc2ccc3ccccc3c2cc1-c1cn2c(n1)sc1ccccc12 | > 100 µM (inactive) | > 100 µM (inactive) | > 100 µM (inactive) | > 100 µM (inactive) | > 100 µM (inactive) | > 100 µM (inactive) | > 100 µM (inactive) | > 100 µM (inactive) | > 100 µM (inactive) | > 100 µM (inactive) | – | > 100 µM (inactive) | > 100 µM (inactive) | 90.8 µM (inactive) | > 100 µM (inactive) | > 100 µM (inactive) | > 100 µM (inactive) | – | > 100 µM (inactive) | > 100 µM (inactive) |
| CC(NC(=O)OC(C)(C)C)C(=O)NC1CCCC1 (stereo not drawn) | > 100 µM (inactive) | > 100 µM (inactive) | > 100 µM (inactive) | > 100 µM (inactive) | > 100 µM (inactive) | > 100 µM (inactive) | > 100 µM (inactive) | > 100 µM (inactive) | > 100 µM (inactive) | > 100 µM (inactive) | – | > 100 µM (inactive) | > 100 µM (inactive) | > 100 µM (inactive) | – | > 100 µM (inactive) | > 100 µM (inactive) | > 100 µM (inactive) | > 100 µM (inactive) | > 100 µM (inactive) |
| CC1(C)CN(c2ccccc2)C(=O)C1OC(=O)[C@@]1(C)C[C@@H]2C=C[C@H]1C2 (stereo partly drawn) | 30 µM (inactive) | – | 20.2 µM (inactive) | 23.3 µM (inactive) | 25.2 µM (inactive) | 19.1 µM (inactive) | 19.5 µM (inactive) | 28.8 µM (inactive) | 23.3 µM (inactive) | 16.9 µM (inactive) | 32.7 µM (inactive) | 26.5 µM (inactive) | 14.9 µM (inactive) | 28.4 µM (inactive) | 24.5 µM (inactive) | 12.3 µM (inactive) | 17.9 µM (inactive) | – | 27.5 µM (inactive) | 10.9 µM (inactive) |
| O=C(/C=C/c1ccccc1O)c1cccc2ccccc12 | – | > 74.1 µM (inactive) | – | 18.2 µM (inactive) | 60.7 µM (inactive) | > 44.8 µM (inactive) | 27.6 µM (inactive) | 69.2 µM (inactive) | > 46.3 µM (inactive) | > 51.4 µM (inactive) | – | > 92.9 µM (inactive) | > 100 µM (inactive) | > 87.9 µM (inactive) | – | 20.3 µM (inactive) | 43.2 µM (inactive) | 31.3 µM (inactive) | 48.8 µM (inactive) | > 100 µM (inactive) |
| CCc1c(-c2ccc(OC)cc2)oc(OC)c(C)c1=O | 57.4 µM (inactive) | > 100 µM (inactive) | > 100 µM (inactive) | 41 µM (inactive) | > 100 µM (inactive) | > 100 µM (inactive) | 55.1 µM (inactive) | > 100 µM (inactive) | – | > 100 µM (inactive) | 45 µM (inactive) | 99.1 µM (inactive) | 32.2 µM (inactive) | 63.4 µM (inactive) | 75.7 µM (inactive) | – | > 100 µM (inactive) | – | > 100 µM (inactive) | – |
| NCCCCC(NC(=O)C(N)Cc1ccc(O)cc1)C(=O)NC(Cc1ccc(O)cc1)C(=O)NC(CCCCN)C(=O)ON1C(=O)CCC1=O (stereo not drawn) (H-YKYK-OSu; configuration not given here) | > 100 µM (inactive) | > 100 µM (inactive) | – | – | > 100 µM (inactive) | > 100 µM (inactive) | > 100 µM (inactive) | > 100 µM (inactive) | > 100 µM (inactive) | > 100 µM (inactive) | > 100 µM (inactive) | – | > 100 µM (inactive) | > 100 µM (inactive) | > 100 µM (inactive) | > 100 µM (inactive) | > 100 µM (inactive) | > 100 µM (inactive) | – | > 100 µM (inactive) |
| CN1CCC(=O)/C(=C/c2ccccc2)C1 | – | 10.9 µM (inactive) | – | 8.93 µM (inactive) | 17.5 µM (inactive) | 13.7 µM (inactive) | 1.78 µM (inactive) | 17.1 µM (inactive) | 16.8 µM (inactive) | 16 µM (inactive) | – | 17.9 µM (inactive) | 17.9 µM (inactive) | 23 µM (inactive) | – | 2.86 µM (inactive) | 13.7 µM (inactive) | 2.91 µM (inactive) | 17.5 µM (inactive) | 19.5 µM (inactive) |

Source: ChEMBL document CHEMBL1201862, “PubChem BioAssay data set” (2004)
